The source of these data is patent US20250092039A1, “GLUTARIMIDE-CONTAINING PAN-KRAS-MUTANT DEGRADER COMPOUNDS AND USES THEREOF” (Tiger Biotherapeutics Inc., priority 2022, published 2025).

Structures are written as SMILES. Read-outs that look alike come from different tables or passages of the source. Where only a bound is given, the exact number is not on record here.

The target of one series is KRAS-G12V/RAF1 (Homo sapiens (Human), UniProt P01116, G12V). Nature of the series: KRAS/RAF1 binding inhibition assay (AlphaScreen). A digest of the protocol:
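IC50 comes from variable-slope nonlinear fits of % inhibition (relative to DMSO) against inhibitor concentration. The AlphaScreen signal tracks the interaction of GppNHp-bound KRAS G12V with the RAF1 RBD after 60 min at 4° C with compound in 2% DMSO final.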
(In Alpha technology, singlet oxygen from a donor bead excites a nearby acceptor bead.)

A further series has as its target KRAS G12V (Homo sapiens (Human), UniProt P01116, G12V). Nature of the series: KRAS G12V degradation in SW620 cells (Western blot, DC50). It is filed as cell-based. The conditions noted are these: 24 hours. A digest of the protocol: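 KRAS levels were quantified by fluorescent Western blot as percent of the DMSO control after 24 h of compound exposure at 37° C in homozygous KRAS G12V SW620 cells. A four-parameter variable-slope fit of the dose-response gave the half-maximal degradation concentration.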
On the technique in general: In western blotting, separated proteins are transferred to a membrane and probed.

The next series deals with SW620 cells. Nature of the series: 3D cell growth inhibition of SW620 cells carrying endogenous KRAS G12V mutation (CellTiter-Glo 3D, GI50). The conditions noted are these: Homo sapiens, SW-620, 144 h, read-out: SW620 3D cell growth GI50. It is filed as cell-based. An outline of the steps: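 […], compound exposure lasted 6 days at 37° C, added the day after plating from DMSO stocks over a concentration range. Cells: SW620, KRAS G12V, 3D culture.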
In general terms: ATP-based viability assays read luminescence as a measure of living cells.

A short description of series [1]: Pharmacokinetics following single intravenous and oral gavage dosing (AUC0-24h). It is filed as in vivo. The conditions noted are these: mouse, plasma, male CD-1 mice. The procedure:
Compounds disclosed herein were studied for animal tolerability and pharmacokinetics following single intravenous (iv) and oral gavage (po) dosing to male CD-1 mice. For each compound in each dosing route, 3 mice were used with iv dosing volume of 5 mL/kg and po dosing volume of 10 mL/kg. The compounds were formulated in 10% DMSO, 30% PEG400, 60% aqueous solution containing 20% 2-hydroxypropyl-β-cyclodextrin. Blood sampling time points for iv dosing were 0.083, 0.25, 0.5, 1, 2, 4, 8 and 24 h. The sampling time points for po dosing were 0.25, 0.5, 1, 2, 4, 6, 8 and 24 h. Mice activities were monitored and recorded immediately following the dosing. The prepared plasma samples were analyzed using LC/MS/MS on AB Sciex Triple Quad 5500+ system. The PK parameters were determined by non-compartmental analysis using WinNonlin (Version 8.0).

KRAS G12V, sequence (P01116-2 other isoform, or with tags, fused parts or gaps G12V): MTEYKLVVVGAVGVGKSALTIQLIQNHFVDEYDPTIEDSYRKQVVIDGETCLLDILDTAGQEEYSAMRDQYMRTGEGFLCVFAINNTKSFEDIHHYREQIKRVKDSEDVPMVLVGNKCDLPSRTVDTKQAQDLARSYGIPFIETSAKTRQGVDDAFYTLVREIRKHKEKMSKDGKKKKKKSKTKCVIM
KRAS-G12V/RAF1, sequence (P01116-2 other isoform, or with tags, fused parts or gaps G12V): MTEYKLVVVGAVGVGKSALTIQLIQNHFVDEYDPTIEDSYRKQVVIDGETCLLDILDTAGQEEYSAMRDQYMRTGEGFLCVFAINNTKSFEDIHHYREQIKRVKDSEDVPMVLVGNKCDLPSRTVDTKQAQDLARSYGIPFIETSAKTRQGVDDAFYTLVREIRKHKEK

On to `CCc1c(F)ccc2cc(O)cc(-c3ncc4c(N5CCC[C@@](C)(O)C5)nc(OCC5(CN6CCC(OC7CC8(CCN(c9ccc%10c(c9)CN(C9CCC(=O)NC9=O)C%10=O)CC8)C7)CC6)CC5)nc4c3F)c12` (stereo partly drawn) [Compound 182, 3-[5-[2-[[1-[[1-[[7-(8-ethyl-7-fluoro-3-hydroxy-1-naphthyl)-8-fluoro-4-[(3R)-3-hydroxy-3-methyl-1-piperidyl]pyrido[4,3-d]pyrimidin-2-yl]oxymethyl]cyclopropyl]methyl]-4-piperidyl]oxy]-7-azaspiro[3.5]nonan-7-yl]-1-oxo-isoindolin-2-yl]piperidine-2,6-dione], for which, on KRAS-G12V/RAF1, the IC50 was 20 to 200 nM. On KRAS G12V, this molecule registered a DC50 below 1 nM. Besides, the GI50 in the series on SW620 cells (SW620 cells, 6 days) was below 10 nM. The same molecule displayed an AUC(0-t) in series [1] (single oral dose 30 mg/Kg) of 4900 ng·h/mL.
Taken in the same sequence, the figures for `CCc1c(F)ccc2cc(O)cc(-c3ncc4c(N5CCC[C@@](C)(O)C5)nc(OCC5(CN6CCC(F)(CN7CCN(c8ccc9c(c8)CN([C@H]8CCC(=O)NC8=O)C9=O)CC7)CC6)CC5)nc4c3F)c12` [Compound 8, (S)-3-(5-(4-((1-((1-(((7-(8-ethyl-7-fluoro-3-hydroxynaphthalen-1-yl)-8-fluoro-4-((R)-3-hydroxy-3-methylpiperidin-1-yl)pyrido[4,3-d]pyrimidin-2-yl)oxy)methyl)cyclopropyl)methyl)-4-fluoropiperidin-4-yl)methyl)piperazin-1-yl)-1-oxoisoindolin-2-yl)piperidine-2,6-dione] were 20 to 200 nM, below 1 nM, below 10 nM and 3420 ng·h/mL.
In turn, `CCc1c(F)ccc2cc(O)cc(-c3ncc4c(N5CCC[C@@](C)(O)C5)nc(OCC5(CN6CCC(CN7CCN(c8ccc9c(c8)CN([C@H]8CCC(=O)NC8=O)C9=O)CC7)(OC)CC6)CC5)nc4c3F)c12` [Compound 25, (S)-3-(5-(4-((1-((1-(((7-(8-ethyl-7-fluoro-3-hydroxynaphthalen-1-yl)-8-fluoro-4-((R)-3-hydroxy-3-methylpiperidin-1-yl)pyrido[4,3-d]pyrimidin-2-yl)oxy)methyl)cyclopropyl)methyl)-4-methoxypiperidin-4-yl)methyl)piperazin-1-yl)-1-oxoisoindolin-2-yl)piperidine-2,6-dione] came in with an IC50 on KRAS-G12V/RAF1 below 20 nM. On KRAS G12V, this molecule displayed a DC50 below 1 nM. Moreover, the GI50 in the series with SW620 cells (SW620 cells, 6 days) is below 10 nM. Also, in series [1] (single oral dose 25 mg/Kg), the AUC(0-t) worked out at 525 ng·h/mL.
With `CCc1c(F)ccc2cc(O)cc(-c3ncc4c(N5CCC[C@]6(CCO6)C5)nc(OCC5(CN6CCC7(CCC(N8CCN(c9ccc%10c(c9)CN([C@H]9CCC(=O)NC9=O)C%10=O)CC8)CC7)CC6)CC5)nc4c3F)c12` [Compound 219, (S)-3-(5-(4-(3-((1-(((7-(8-ethyl-7-fluoro-3-hydroxynaphthalen-1-yl)-8-fluoro-4-((S)-1-oxa-6-azaspiro[3.5]nonan-6-yl)pyrido[4,3-d]pyrimidin-2-yl)oxy)methyl)cyclopropyl)methyl)-3-azaspiro[5.5]undecan-9-yl)piperazin-1-yl)-1-oxoisoindolin-2-yl)piperidine-2,6-dione], at KRAS-G12V/RAF1, the IC50 was below 20 nM. In addition, the DC50 at KRAS G12V is below 1 nM. The GI50 in the series on SW620 cells (SW620 cells, 6 days) is below 10 nM. In series [1] (single oral dose 30 mg/Kg), this molecule returned an AUC(0-t) of 718 ng·h/mL.
Taken in the same sequence, the figures for `CCc1cccc2cc(O)cc(-c3ncc4c(N5CCC[C@@](C)(O)C5)nc(OCC5(CN6CCC(F)(CN7CCN(c8ccc9c(c8)CN([C@H]8CCC(=O)NC8=O)C9=O)CC7)CC6)CC5)nc4c3F)c12` [Compound 33, (S)-3-(5-(4-((1-((1-(((7-(8-ethyl-3-hydroxynaphthalen-1-yl)-8-fluoro-4-((R)-3-hydroxy-3-methylpiperidin-1-yl)pyrido[4,3-d]pyrimidin-2-yl)oxy)methyl)cyclopropyl)methyl)-4-fluoropiperidin-4-yl)methyl)piperazin-1-yl)-1-oxoisoindolin-2-yl)piperidine-2,6-dione] were 20 to 200 nM, below 1 nM, below 10 nM and 509 ng·h/mL.
With `CCc1c(F)ccc2cc(O)cc(-c3ncc4c(N5CCC[C@]6(CCO6)C5)nc(OCC5(CN6CCC(C)(CN7CCN(c8ccc9c(c8)CN([C@H]8CCC(=O)NC8=O)C9=O)CC7)CC6)CC5)nc4c3F)c12` [Compound 217, (S)-3-(5-(4-((1-((1-(((7-(8-ethyl-7-fluoro-3-hydroxynaphthalen-1-yl)-8-fluoro-4-((S)-1-oxa-6-azaspiro[3.5]nonan-6-yl)pyrido[4,3-d]pyrimidin-2-yl)oxy)methyl)cyclopropyl)methyl)-4-methylpiperidin-4-yl)methyl)piperazin-1-yl)-1-oxoisoindolin-2-yl)piperidine-2,6-dione], the IC50 on KRAS-G12V/RAF1 was 20 to 200 nM. The DC50 on KRAS G12V was below 1 nM. The GI50 in the series on SW620 cells (SW620 cells, 6 days) is below 10 nM. In series [1] (single oral dose 15 mg/Kg), the AUC(0-t) stood at 977 ng·h/mL.
Take `CCc1cccc2cc(O)cc(-c3ncc4c(N5CCC[C@@](C)(O)C5)nc(OCC5(CN6CCC(F)(CN7CC8(CCN(c9ccc%10c(c9)CN(C9CCC(=O)NC9=O)C%10=O)CC8)C7)CC6)CC5)nc4c3F)c12` (stereo partly drawn) [Compound 28, 3-(5-(2-((1-((1-(((7-(8-ethyl-3-hydroxynaphthalen-1-yl)-8-fluoro-4-((R)-3-hydroxy-3-methylpiperidin-1-yl)pyrido[4,3-d]pyrimidin-2-yl)oxy)methyl)cyclopropyl)methyl)-4-fluoropiperidin-4-yl)methyl)-2,7-diazaspiro[3.5]nonan-7-yl)-1-oxoisoindolin-2-yl)piperidine-2,6-dione]: at KRAS-G12V/RAF1, the IC50 lay within 20 to 200 nM. For the same molecule, the DC50 at KRAS G12V was below 1 nM. Besides, in the series with SW620 cells (SW620 cells, 6 days), the GI50 is below 10 nM. The AUC(0-t) in series [1] (single oral dose 30 mg/Kg) turned out to be 539 ng·h/mL.
For the molecule `CCc1c(F)ccc2cc(O)cc(-c3ncc4c(N5CCC[C@@](C)(O)C5)nc(OCC5(CN6CCC7(CCC(N8CCN(c9ccc%10c(c9)CN([C@H]9CCC(=O)NC9=O)C%10=O)CC8)CC7)CC6)CC5)nc4c3F)c12` [Compound 120, (S)-3-(5-(4-(3-((1-(((7-(8-ethyl-7-fluoro-3-hydroxynaphthalen-1-yl)-8-fluoro-4-((R)-3-hydroxy-3-methylpiperidin-1-yl)pyrido[4,3-d]pyrimidin-2-yl)oxy)methyl)cyclopropyl)methyl)-3-azaspiro[5.5]undecan-9-yl)piperazin-1-yl)-1-oxoisoindolin-2-yl)piperidine-2,6-dione], on KRAS-G12V/RAF1, the IC50 is below 20 nM. Besides, at KRAS G12V, the DC50 lay in the range of 1 to 10 nM. For the same molecule, the GI50 in the series on SW620 cells (SW620 cells, 6 days) is below 10 nM. Further, the AUC(0-t) in series [1] (single oral dose 50 mg/Kg) was 255 ng·h/mL.
On KRAS-G12V/RAF1, `CCc1c(F)ccc2cc(O)cc(-c3ncc4c(N5CCC[C@@](C)(O)C5)nc(OCC5(CN6CCC7(CCC(N8CCN(c9cc(F)c(C%10CCC(=O)NC%10=O)c(F)c9)CC8)CC7)CC6)CC5)nc4c3F)c12` (stereo partly drawn) [Compound 51, 3-{4-[4-(3-{[1-({[7-(8-ethyl-7-fluoro-3-hydroxynaphthalen-1-yl)-8-fluoro-4-[(3R)-3-hydroxy-3-methylpiperidin-1-yl]pyrido[4,3-d]pyrimidin-2-yl]oxy}methyl)cyclopropyl]methyl}-3-azaspiro[5.5]undecan-9-yl)piperazin-1-yl]-2,6-difluorophenyl}piperidine-2,6-dione] showed an IC50 of 20 to 200 nM. The same molecule showed a DC50 at KRAS G12V of 1 to 10 nM. In addition, the GI50 in the series on SW620 cells is below 10 nM. Also, the AUC(0-t) in series [1] (single oral dose 30 mg/Kg) was 2280 ng·h/mL.

What is called IC50 is the concentration that inhibits the measured activity by half. A low value points to higher potency. For orientation: DC50 means the concentration giving 50% degradation. Lower therefore signals degradation at low concentration. As usually defined, the GI50 is the concentration giving 50% growth inhibition. One may read the AUC(0-t) as exposure summed from dosing to a finite time, without extrapolation to infinity.
